Measurements reported in patent publication US20030190289A1, “Formulations containing a glucocorticoid drug for the treatment of bronchopulmonary diseases” (priority 2000, published 2003).

Columns and labels:
[1] = cited from earlier work; for Rank order of topical activity: comparison between rac-BUD and its two epimers, Clissold et al.
[2] = Clissold et al. 1984, Edbäcker et al. 1987; cited from earlier work
[3] = Solubility in ethanol and ethanol/HFA mixtures; format: physicochemical; conditions: in ethanol and mixtures containing ethanol and HFA134a or ethanol and HFA227
[4] = Pharmacokinetic and metabolic profile / systemic exposure of the epimers; format: in vivo; conditions: studies carried out by the applicant
[5] = HFA propellant containing ethanol and optionally a low volatility component; inhalers with internal surface of stainless steel, anodized aluminum or epoxy phenol resin lining; WO 00/30608; cited from earlier work
[6] = Chemical and physical stability in solution; format: physicochemical; conditions: solution formulations
Method: In WO 00/30608 published on Jun.
In the same application, further 22R-BUD solution compositions in HFA 134a or 227 are described whose relevant respirable dose and the respirable fraction have been determined. In these compositions, the concentration of the active ingredient is comprised between 0.06% and 0.14% w/v equivalent to single doses of w 60, 63 and 70 μg, respectively. However, although said formulations give rise to good performances in term of respirable fraction due to the low amount of ethanol, the polarity of the whole solvent system constituted of 7-8% w/w of ethanol and 0.9% w/w of isopropyl myristate or PEG 400 is too low, leading to physical stability problem, i.e. partial precipitation of the active ingredient, after storage under stress conditions.

[7] = studies in the animals; Clissold et al. 1984, Edbäcker et al. 1987; cited from earlier work

SMILES	Ratio of topical to systemic activity ([1]; compared with other corticosteroids)	Rank order of topical activity [1]	Pharmacokinetic and metabolic profile versus (22S) epimer [2]	Solubility versus corresponding epimer [3]	Systemic exposure versus corresponding epimer [4]	Stability in solution [5]	Chemical degradation tendency versus corresponding epimer [6]	Potency relative to the corresponding (22S) epimer [7]
CCCC1O[C@@H]2C[C@H]3[C@@H]4CCC5=CC(=O)C=C[C@]5(C)[C@H]4[C@@H](O)C[C@]3(C)[C@]2(C(=O)CO)O1 (mixture of isomers) [rac-BUD, Budesonide]	high ratio of topical to systemic activity	22R >rac-BUD >22S	–	–	–	–	–	–
CCC[C@@H]1O[C@@H]2C[C@H]3[C@@H]4CCC5=CC(=O)C=C[C@]5(C)[C@H]4[C@@H](O)C[C@]3(C)[C@]2(C(=O)CO)O1 [Composition 22R-BUD, (22R)-budesonide]	–	22R >rac-BUD >22S	different pharmacokinetic and metabolic profile	significantly less soluble than its corresponding epimer	different from that of its corresponding epimer	stable in solution	higher tendency to exhibit chemical degradation than its corresponding epimer	2 to 3 times
CCCC1OC2CC3C4CCC5=CC(=O)C=CC5(C)C4C(O)CC3(C)C2(C(=O)CO)O1 (stereo not shown) [Composition 22S]	–	22R >rac-BUD >22S	–	–	–	–	–	–
